# Assay results published in a melting point compilation (Tetko et al.; mined from patent text by program, amines drawn as free bases though some values may be those of a salt).
row,Compound,melting point [°C]
1,CC(C)(C)c1cc(C(C)(C)C)c2oc(N)c(-c3ccccc3)c2c1,174 to 178
2,CCOC(=O)C(Cc1ccccc1)N(CC)C(=O)OC(C)(C)C (configuration not stated),58 to 61.5
3,COC(=O)c1ncn(C(c2ccccc2)c2ccccc2)c1C(=O)OC,93
4,CCONC(CC)=C1C(=O)CC(C(C)(C)Sc2ccc(C)cc2)CC1=O (configuration not stated),77.5 to 79
5,COc1ccccc1N1CCN(CCCNC(=O)c2csc3c(=O)cc(-c4ccccc4)oc23)CC1,161 to 162
6,CC(C)n1nc(-c2c(-c3ccccc3)nn3ccc(OCCc4ccccc4)cc23)ccc1=O,154 to 156
7,Cc1oc(-c2ccccc2)nc1CCOc1ccc(C[C@@H](C(=O)O)N2CCN(c3ccccc3)CC2)cc1,218 to 220
8,O=[N+]([O-])c1ccccc1Oc1ccc(OCc2ccc(F)c(F)c2)cc1,74 to 75
9,CCN(CC)CCN=C1CC(c2ccc(Cl)c(Cl)c2)Cc2c1c(=O)c1cc(Cl)ccc1n2O (configuration not stated),212 to 213
10,N=C(NC(=O)c1cccc2ccccc12)N1CC(c2ccccc2)C(c2ccc(Cl)cc2)=N1 (configuration not stated),206 to 207
11,CC(=O)Nc1ccc(-c2ncc(NC(=O)OCc3ccccc3)c(=O)n2CC(=O)NC(Cc2ccccc2)C(=O)C(F)(F)F)cc1 (configuration not stated),235 to 240
12,CCCCCCCCCCCCCCCCCCCCCCOc1ccc(C(=O)O)cc1,99 to 102
13,COC(=O)c1cc2cc(O)ccc2o1,132 to 133
14,COc1cc2c3ccc(OC)c(OC)c3n(C(=O)c3cccc([N+](=O)[O-])c3)c2cc1OC,187 to 191
15,CN1CCN(c2ccc(S(=O)(=O)Oc3ccc(F)cc3)cc2)C1=O,170 to 172
16,Nc1ccn([C@@H]2C[C@H](CO)[C@@H](O)[C@H]2O)c(=O)n1,214
17,Cn1cc(C(=O)Nc2ccccc2-c2ccc(C(F)(F)F)cc2)c(C(F)F)n1,164 to 165
18,NS(=O)(=O)c1cc(S(=O)(=O)N(N2CCCCC2)N2CCCCC2)c(Cl)cc1Cl,170
19,O=C(Cn1c(=O)c(=O)[nH]c2cc([N+](=O)[O-])c(-n3cccc3)cc21)Nc1ccccc1,> 300
20,CC(Oc1ccc(CNc2ccc(Cl)cc2)cc1)C(=O)O (configuration not stated),148 to 149
21,CCN(CC)C(=O)Oc1cc(-c2cccs2)nc2ccccc12,72
22,NC(=O)COCCOCCN1CCC(=C(c2ccccc2)c2ccccc2)CC1,51 to 53
23,CO[C@@H]1O[C@H](C(N)=O)[C@H]2OC(C)(C)O[C@@H]12,134 to 136
24,CCCCc1c(-c2ncccc2C(=O)O)n(-c2ccccc2)n(-c2ccccc2)c1=O,139 to 141

row,Compound,melting point [°C]
1,CCn1c(-c2ccc(F)cc2)c(OCCOc2ccc(C(C)=C3SC(=O)NC3=O)cc2)c(=O)c2ccccc21,214 to 216
2,Cc1ccccc1-c1nn(C(C)(C)C(=O)N(C)C)cc1Cl,134 to 136
3,O=C(C=CC(=O)OC(Cl)C(Cl)(Cl)Cl)OC(Cl)C(Cl)(Cl)Cl (configuration not stated),144
4,CS(=O)(=O)N(Cc1cccnc1)c1cccc([N+](=O)[O-])c1,131 to 133
5,Cc1nc(N)sc1-c1ccnc(CC2CC2)n1,198 to 200
6,OC(=S)Cc1cc(Cl)ccc1Cl,118
7,CC1N=C(c2ccccc2F)c2cc(I)ccc2NC1=O (configuration not stated),211
8,CCCCCn1ncc2c(N)c3c(nc21)CN(Cc1cccc(C(F)(F)F)c1)C3=O,146 to 148
9,CCOC(=O)n1nc(S(=O)(=O)Nc2c(Cl)cccc2Cl)nc1NC,202 to 203
10,COc1ccc(NC(=O)c2ccccc2F)cc1,83.1 to 84.3
11,CN(C)CC1CCc2cc(OCc3ccc(NC(=O)Cc4ccccc4)cc3)ccc2C1 (configuration not stated),130 to 135
12,COc1cc(Nc2c(C#N)cnc3cc4cc(OCCN5CCN(C)CC5)c(OC)cc4cc23)c(Cl)cc1F,197 to 205
13,O=C(Nc1ccc(C(F)(F)F)cc1)c1ccccc1NCc1ccncc1,171 to 175
14,Cc1nc2c(N)nc3ccccc3c2n1CCCOCCCc1ccccc1,145 to 146
15,CC(C)CNC(=O)C(C)NC(=O)C(C)NC(=O)C(C)NC(=O)CCCC(=O)O (configuration not stated),292 to 293
16,CCc1ccc(S(=O)(=O)c2ccc(C)nc2Nc2ccc(OC)cc2Cl)cc1,110 to 112
17,O=C(O)CCc1cc(OCCCc2cn(-c3ccc(C(F)(F)F)cn3)nc2C2CCCCC2)nn1-c1ccccc1,182 to 183
18,O=c1cc(CNCc2ccccc2)c2ccc(OCc3cccc(Cl)c3)cc2o1,133 to 135
19,CC1(C)SC(c2cc(Br)c(O)c(Br)c2)NC1C(=O)O (configuration not stated),154 to 155
20,COc1ccc(S(=O)(=O)CCNC(=O)N2CCCC2=O)cc1,124 to 125
21,CC=CC=CC(O)c1ccc(-c2nc(C)c3c(n2)sc2c(OCC)nc(N4CCNCC4)nc23)cc1 (configuration not stated),149 to 150
22,COc1cc2cc(Br)c(C)cc2c(C(C)C)c1OC,62 to 63
23,CSc1nnc(N2CCN(c3ccc(N4CC(CNC(C)=O)OC4=O)cc3F)CC2)s1 (configuration not stated),222 to 223
